These are literature values, as cited in paper PMC12154426, “TPP-Based Nanovesicles Kill MDR Neuroblastoma Cells and Induce Moderate ROS Increase, While Exerting Low Toxicity Towards Primary Cell Cultures: An In Vitro Study” (International Journal of Molecular Sciences, 2025).

Like-named read-outs stand apart in the source and are kept apart here.

Data set [1] relates to A-375 cancer cells. Also on record: method as in PMID 28151482. Particulars: 24 h exposure; 30 µM vemurafenib, 50 µM TRAM-34, or their combination; cited from earlier work.
Details of data set [2]: method as in PMID 36084362. Particulars: MFC-7, 24 h exposure, cited from earlier work.
Data set [3] concerns Hela. Also on record: method as in PMID 36084362. Particulars: 24 h exposure, cited from earlier work.

`Clc1ccccc1C(c1ccccc1)(c1ccccc1)n1cccn1` [TRAM-34]: the “ROS increase with respect to the control” value in data set [1] is given as ~30%.

With “2,9,16,23-tetrakis-(N-(N-butyl-4-triphenyl-phosphonium)-morpholino) Zn(II) Pc [compound 4]”, the half-inhibitory concentration (IC50) – broadly, the concentration at which inhibition is half-maximal – in data set [2] (PDT/SDT) was 15.5 µM; in data set [2] (PDT), 45 µM; in data set [2] (SDT), 20.5 µM; in data set [3] (PDT/SDT) it was 14.4 µM; in data set [3] (PDT), 25.6 µM; in data set [3] (SDT), 17.2 µM.

Turning to `CCCS(=O)(=O)Nc1ccc(F)c(C(=O)c2c[nH]c3ncc(-c4ccc(Cl)cc4)cc23)c1F` [vemurafenib], in data set [1], the “ROS increase with respect to the control” value is “about 38%”.

On to “2,9,16,23-tetrakis(N-(N-butyl-4-triphenyl-phosphonium)-pyridine-4-yloxy) Zn(II) Pc [compound 3]”, for which the IC50 is 13.2 µM in data set [2] (PDT/SDT); 43.3 µM in data set [2] (PDT); 18.2 µM in data set [2] (SDT); 12.7 µM in data set [3] (PDT/SDT); 21.8 µM in data set [3] (PDT); 14.3 µM in data set [3] (SDT).
